Key:
[1] = tested on: HGC-27 cells; assay: Western blot of DNA damage response markers, HGC-27; assay type: cell-based, human; details: HGC-27, 1-12 µM 48 h or 12 µM 12-48 h, dose and time-dependently, vs DMSO
Experimental: MGC-803, HGC-27 and GES-1 cells were seeded into 100mm^2 plastic dishes(1 × 10^5 cells/well) and incubated overnight prior to the addition of compound MI-743 at 1, 2, 4, 8 and 12 µM for 48 h or compound MI-743 at 12 µM for 12, 24, 36 and 48 h, respectively. After treatment, the cells were harvested and lysed with RIPA cell lysis buffer, containing protease inhibitor cocktail. Then, the cells were centrifuged at 12,000 × g for 20 min at 4 °C. The supernatant were collected and the concentration was determined by a Bicinchoninic Acid (BCA) Protein Assay kit, denatured at 100 °C for 10 min, separated by SDS−PAGE and transferred to 0.22 μm nitrocellulose membranes. After blocking by PBS containing 5% skim milk for 2 h at room temperature, the membranes were probed with the appropriate primary antibodies (1:500~1:1000) at 4 °C overnight, followed by the treatment of horseradish-peroxidase-conjugated secondary antibody (1:10000) at room temperature for 2 h. Subsequently, the membranes were washed with PBST, examined by enhanced chemiluminescence and the data was determined using Image J software.

[2] = tested on: HGC-27 cells; assay: Colony formation assay, HGC-27; assay type: cell-based, human; details: HGC-27, 7 days treatment, compared with DMSO or MI-929
Experimental: The day before treatment, cells were seeded into six-well plates at a concentration of 1 × 10^3 cells per well, and then the media were replaced with fresh media containing serial concentrations of candidate compounds. After 7 days of treatment, the cells were fixed with 75% ethanol, stained with 0.1% crystal violet solution and captured by the microscopy (Leica). After that, the crystal violet crystals were dissolved by adding methanol. The absorbance at 595 nm was measured by a BioTek micro plate reader. In the end, the data were analyzed using the GraphPad Prism 5 software.

[3] = tested on: HGC-27 cells; assay: MTT cell viability, HGC-27; assay type: cell-based; details: Homo sapiens, gastric cancer cell line, 72 h
Experimental: (§1) The cell viability was determined by 3-(4,5-dimethylthiazol-2-yl)-2,5-diphenyltetrazolium bromide (MTT) assay, according to the manufacturer’s instructions. 1 day before treatment, cells were seeded into 96-well plates at a concentration of 2–5 × 10^3 cells per well, followed by treatment with fresh medium containing serial dilutions of candidate compounds for 48 or 72 h, 20 μL of MTT solution (5 mg/mL in PBS) was then added to each well. After treatment, the plates were incubated at 37 °C for another 4 h. Subsequently, the MTT solution was removed and 150 μL of DMSO was added to each well for 10 min, and then the plates were shaken to dissolve the dark blue crystal (formazan), the absorbance was detected at 570 nm using a BioTek microplate reader. The data were analyzed using SPSS 20 software.

[4] = tested on: MGC-803 cells-derived xenograft; assay: MGC-803 cells-derived xenograft model; assay type: in vivo, BALB/c nude mice; design: average tumor volumes in comparison with oil treatment group: scale not given here; details: 40 mg/kg, gavage once a day for 25 days
Experimental: All animal experiments were conducted according to the guidelines of the Institutional Animal Care and Use Committee of Zhengzhou University. Four or five-week-old female BALB/c nude mice, weighing 18–21 g were purchased from Hunan Slack Scene of Laboratory Animal Company, LTD (Hunan, China). They received abundant food and water and were housed in a laminar flow under sterilized condition. 200 µL MGC-803 cells at the concentration of 5 × 10^7/mL were injected into the right scapular region of the mice. When most of the tumor volumes reached 100 mm^3, mice were randomly divided into oil (solvent) group and MI-743(40 mg/kg) treatment group. Then, they received gavage daily for 25 days. The body weight was weighed every 2 days and the tumor volumes were measured every 4 days. At the 25th day, the tumors were surgically removed and weighed. The tumor size was determined by vernier caliper measurements and the tumor and major organs were fixed in 4% buffered paraformaldehyde and paraffin-embedded for hematoxylin and eosin (HE) staining, immunohistochemistry (IHC) and TUNEL assay.

[5] = tested on: B16-F10 cells; assay: MTT cell viability, B16-F10; assay type: cell-based; details: Mus musculus, 72 h
Experimental: as §1

[6] = tested on: HGC-27 cells; assay: 8-oxo-dG assay (Cy3-conjugated avidin), HGC-27; assay type: cell-based, human; details: HGC-27, 5 µM, 48 h, compared with DMSO
Experimental: Intracellular 8-oxo-dG levels were measured by staining with Cy3-conjugated avidin[65]. Cells were seeded on coverslips in 24-well plates (1–1.5 × 10^4 cells/well) overnight, and then transfected with candidate compounds. After 48 h, the cells were fixed with ice-cold methanol in Tris-buffered saline (TBS) for 15 min and blocked, using TBS with 0.1% Triton X-100 and 15% fetal bovine serum for 1 h. Then, the cells were stained with Cy3-conjugated avidin (0.5 µg/mL) for 1 h at room temperature. DNA was counterstained with 4,6-diamidino-2-phenylindole(DAPI). Images were acquired in a Nikon Eclipse TE 2000-S fluorescence microscope.

[7] = tested on: H1975 cells; assay: MTT cell viability, H1975; assay type: cell-based; details: Homo sapiens, NCI-H1975, 72 h
Experimental: as §1

[8] = tested on: KYSE-450 cells; assay: MTT cell viability, KYSE-450; assay type: cell-based; details: Homo sapiens, esophageal cancer cell line, 72 h
Experimental: as §1

[9] = tested on: MGC-803 cells; assay: Alkaline comet assay, MGC-803; assay type: cell-based, human; details: MGC-803, 10 µM, 48 h, compared with DMSO
Experimental: MGC-803 and HGC-27 cells were seeded into 6-well plates(1.5 × 10^5 cells/well) and cultured overnight. For siRNA experiments, the control siRNA and MTH1 siRNA were transfected into cells. For compounds experiments, cells were treated with candidate compounds MI-743 for 48 h before collection. For the H2O2 control, cells were treated with 100 µM H2O2 for 10 min. Subsequently, cells were harvested, washed and resuspended with PBS. After counting, cells were mixed with 1.2% low melting-temperature agarose at 37 °C. The mixtures were layered onto pre-warmed glass slides, which were pre-coated with 1% agarose. After adding coverslips, slides were kept in 4 °C immediately for 10-15 min, followed by immersing in pre-chilled lysis buffer(2.5 M NaCl, 0.1 M EDTA, 10 mM Tris-HCL pH 7.7, 1% Triton X-100, 1% DMSO)for 5-8 h. Then, slides were washed three times with enzyme reaction buffer (40 mM HEPES pH 8.0, 0.1 M KCl, 0.5 mM EDTA and 0.2 mg/mL BSA) and incubated for another 45 min in pre-chilled alkaline electrophoresis buffer (50 mM NaOH, 1 mM EDTA, 1% DMSO, pH12.8). After electrophoresis for 30 min at 25 V, slides were neutralized with 0.4 M Tris-HCl pH 7.0 for 1 h and stained with 1‰ EB for 5 min. At last, images were acquired using fluorescence microscope and analysised by CometScore software.

IC50 [5]: 8.08 ± 0.91 µM
IC50 [7]: 15.1 ± 1.18 µM
SMILES: C#CCSc1nc(NNC(N)=S)c(C#N)c(-c2ccc3oc(=O)ccc3c2)n1 [MI-743, 2-(5-cyano-6-(2-oxo-2H-chromen-6-yl)-2-(prop-2-yn-1-ylthio)pyrimidin-4-yl)hydrazine-1-carbothioamide]
expression levels of p53pS15, ATMpS1981 and p21 [1]: significantly increased
colony formation [2]: smaller and fewer colonies
IC50 [3]: 1.14 ± 0.16 µM
average tumor volumes in comparison with oil treatment group [4]: 33.54%
expression levels of ATMpS1981 and 8-oxo-dG in tumor tissue (immunohistochemistry) ([4]; vs oil group): sharply increased
levels of 8-oxo-dG [6]: sharply increased
IC50 [8]: 6.69 ± 0.82 µM
comet tail moment [9]: significantly elevated

— publication PMC6547740, “Potent and specific MTH1 inhibitors targeting gastric cancer” (Cell Death & Disease, 2019)
